Test results taken from patent publication US9234176B2, “Chemically defined production of cardiomyocytes from pluripotent stem cells” (The Board of Trustees of the Leland Stanford Junior …, priority 2012, dated 2016).

How the values were obtained:
hiPSC = assay: Analysis of components of defined media for hiPSC cardiac differentiation (contraction score); assay type: cell-based, human; set-up: 9 components subtracting: cardiac differentiation score / 2 components subtracting: cardiac differentiation score: key: 0: no cardiac differentiation or cell death; +: some contraction; ++: >50% contraction; +++: >75% contraction; settings: for 21 components subtracting: cardiac differentiation score: a) each of the 21 components of B27 without insulin subtracted one at a time, score of medium lacking the component; for 10 components subtracting: cardiac differentiation score: b) second medium of 10 essential components, each subtracted one at a time; for 9 components subtracting: cardiac differentiation score: c) 9-component medium; for 9 components subtracting: cardiac differentiation score / 9 components (with 4 at 10x) subtracting: cardiac differentiation score / 6 components subtracting: cardiac differentiation score: each component subtracted; for 9 components (with 4 at 10x) subtracting: cardiac differentiation score: e) third medium with increased concentrations; for 6 components subtracting: cardiac differentiation score: f) fourth 6-component medium
Source text: Development of a Chemically Defined Cardiac Differentiation Platform. We first generated eleven pluripotent hiPSC lines under chemically defined conditions (FIG. 7) on a chemically synthesized vitronectin peptide substrate, with nonenzymatic passaging (FIG. 8). […] To formulate a chemically defined differentiation protocol, we concentrated on the observation that three unrelated media formations are capable of supporting growth factor-based monolayer cardiac differentiation: RPMI+B27-ins, supplemented StemPro-34, and LI-APEL (Table 5). […] Beginning with the 21 components of B27, we subtracted one component at a time and assessed for continued high efficiency differentiation (Table 6a-c) and also assessed components from two other two media (supplemented StemPro-34 and LI-APEL) that yielded benefits (Table 6d-f). We concluded that hiPSC cardiac differentiation was successful in a media consisting of […]: RPMI 1640 basal medium, L-ascorbic acid 2-phosphate (AA 2-P), and BSA (Table 6g).
Other additions to cardiac differentiation media tested were 10.7 μg/mL recombinant human transferrin, […], 1 μg/mL linoleic acid, 1 μg/mL linolenic acid, 2 ng/mL triiodo-l-thyronine, 2 μg/mL L-carnitine, 1 μg/mL D,L-alpha-tocopherol acetate, 100 ng/mL retinol acetate, 1 μg/mL ethanolamine, 20 ng/mL corticosterone, 9 ng/mL progesterone, 47 ng/mL lipoic acid, 100 ng/mL retinol, 1 μg/mL D,L-alpha-tocopherol, 100 ng/mL biotin, 2.5 ug/mL catalase, 2.5 μg/mL glutathione, 2.5 μg/mL superoxide dismutase, 2 μg/mL L-carnitine, 15 μg/mL D(+)-galactose, 16.1 μg/mL putrescine, 450 μM 1-thioglycerol, 55 μM 2-mercaptoethanol, 64 μg/mL L-ascorbic acid 2-phosphate (all from Sigma-Aldrich).

hPSC = assay: Directed cardiac differentiation of hPSC in minimal media (Example 1); assay type: cell-based, human; settings: for Wnt signaling antagonist effective for cardiac differentiation: at a concentration of 5 μM; for further enhancement of differentiation by pathway inhibitors: small molecule inhibitors at the later stage of differentiation
Protocol: Directed Cardiac Differentiation Procedure. (volumes provided are for a T25 flask; adjust volumes proportionately for larger vessels) Day 0 (day 4 after passage): Aspirate medium, and replace with 5 mL of minimal media (CDM3, D3, D4, or D11) supplemented with 6 uM of CHIR-99021 (CHIR-99021 can be used at 4-15 μM). Place flasks in a regular ambient O2, 5% CO2 incubator. Day 2: 48 h. Aspirate media and replace with 5 mL of minimal media (CDM3, D3, D4, or D11). Day 3: 72 h. Aspirate media and replace with 5 mL of minimal media (CDM3, D3, D4, or D11) supplemented with 0.5 uM C59 (C59 may be used at 0.5-5 μM). Day 5: Aspirate media and replace with 5 mL of minimal media (CDM3, D3, D4, or D11). From day 5 onwards media should be changed every 2 days with minimal media (CDM3, D3, D4, or D11).
From day 0 to day 2 (d0-d2), minimal media (CDM3, D3, D4, or D11) was supplemented with the Wnt signaling agonist CHIR-99021 (6-10 uM 48 h, d0-d2), which triggers canonical Wnt/β-Catenin signaling that leads to the subsequent up-regulation of BMP4 and activin A. Media is then exchanged to non-supplemented minimal media (CDM3, D3, D4, or D11) for 1 day followed by contact with a Wnt signaling antagonist (e.g., C59: 0.5-5 uM, 48 h, d3-d5) for 2 days. At day 5, 7, and 9 minimal media (CDM3, D3, D4, or D11) is exchanged for fresh media, and contraction begins between d7 and d10. At day 11, media is exchanged to a variant of minimal media (CDM3, D3, D4, or D11) without […] that results in the depletion of non-cardiomyocytes due to a lack of glycogen stores. Media was exchanged on day 13 for fresh media lacking glucose. At day 15, media was exchanged for fresh minimal media (CDM3, D3, D4, or D11) (containing glucose).
The presence of cardiomyocytes was verified in a number of different ways, for example: flow cytometry of cells contacted with an antibody specific for a cardiomyocyte marker (TNNT2); imaging of cells stained with antibodies specific for α-Sarcomeric actin (red) and Troponin T (TNNT2); electrophysiological profiling; and evaluating responsiveness to known cardioactive drugs (e.g., Norepinephrine). Assays performed on multiple different cell lines (including several hESC lines and over 30 hiPSC lines) confirmed that the subject methods are highly consistent and highly efficient, as very little variability was observed among the different cell lines.

[1] = d) component at 10 x concentration

Compound: N[C@@H](CCC(=O)N[C@@H](CS)C(=O)NCC(=O)O)C(=O)O [Glutathione (reduced)]
- 21 components subtracting: cardiac differentiation score (hiPSC): ++ (>50% contraction)

Compound: C[C@]12CCC(=O)C=C1CC[C@@H]1[C@@H]2[C@@H](O)C[C@@]2(C)[C@H]1CC[C@]2(O)C(=O)CO [Hydrocortisone]
- 9 components with the addition of: cardiac differentiation score (hiPSC; d) addition of components from the other media formulae of Table 5): +

Compound: O=C1[C@H](Cc2ccc(O)cc2)N2C(=O)CCN(C(=O)NCc3ccccc3)[C@H]2CN1Cc1cccc2ccccc12 [ICG-001, (6S,9aS)-6-(4-hydroxybenzyl)-N-benzyl-8-(naphthalen-1-ylmethyl)-4,7-diaxo-hexahydro-2H-pyrazino[1,2-a]pyrimidine-1(6H)-carboxamide]
- Wnt signaling antagonist effective for cardiac differentiation (hPSC): not found to be effective

Compound: CC/C=C\C/C=C\C/C=C\CCCCCCCC(=O)O [Linolenic acid]
- 21 components subtracting: cardiac differentiation score (hiPSC): 0
- 10 components subtracting: cardiac differentiation score (hiPSC): 0
- 9 components subtracting: cardiac differentiation score (hiPSC): 0
- 9 components with the addition of: cardiac differentiation score (hiPSC; [1]): +
- 9 components (with 4 at 10x) subtracting: cardiac differentiation score (hiPSC): 0
- 6 components subtracting: cardiac differentiation score (hiPSC): +++ (>75% contraction)

Compound: C[S+]([O-])c1ccc(-c2nc(-c3ccncc3)c(-c3ccc(F)cc3)[nH]2)cc1 (centres unmarked) [SB203580]
- further enhancement of differentiation by pathway inhibitors (hPSC): did not further enhance the differentiation

Compound: CC(=O)[C@H]1CC[C@H]2[C@@H]3CCC4=CC(=O)CC[C@]4(C)[C@H]3CC[C@]12C [Progesterone]
- 21 components subtracting: cardiac differentiation score (hiPSC): ++ (>50% contraction)

Compound: CC1=C(/C=C/C(C)=C/C=C/C(C)=C/CO)C(C)(C)CCC1 [Retinol, all trans (vit. A), Retinol, all trans]
- 21 components subtracting: cardiac differentiation score (hiPSC): ++ (>50% contraction)

Compound: Cc1c(C)c2c(c(C)c1O)CCC(C)(CCCC(C)CCCC(C)CCCC(C)C)O2 [D,L-a-tocopherol (vit E), D,L-a-tocopherol]
- 21 components subtracting: cardiac differentiation score (hiPSC): ++ (>50% contraction)

Compound: Holo transferrin: B27 component
- 21 components subtracting: cardiac differentiation score (hiPSC): 0
- 10 components subtracting: cardiac differentiation score (hiPSC): 0
- 9 components subtracting: cardiac differentiation score (hiPSC): 0
- 9 components with the addition of: cardiac differentiation score (hiPSC; [1]): +
- 6 components subtracting: cardiac differentiation score (hiPSC): +++ (>75% contraction)

Compound: c1ccc(-c2[nH]ncc2-c2ccnc3ccccc23)nc1 [LY364947]
- further enhancement of differentiation by pathway inhibitors (hPSC): did not further enhance the differentiation

Compound: CC(=O)Oc1c(C)c(C)c2c(c1C)CCC(C)(CCCC(C)CCCC(C)CCCC(C)C)O2 [D,L-a-tocopherol acetate]
- 21 components subtracting: cardiac differentiation score (hiPSC): 0
- 10 components subtracting: cardiac differentiation score (hiPSC): 0
- 9 components subtracting: cardiac differentiation score (hiPSC): 0
- 9 components with the addition of: cardiac differentiation score (hiPSC; [1]): +++ (>75% contraction)
- 9 components (with 4 at 10x) subtracting: cardiac differentiation score (hiPSC): +++ (>75% contraction)

Compound: O=[Se](O)O [Sodium selenite]
- 21 components subtracting: cardiac differentiation score (hiPSC): 0
- 10 components subtracting: cardiac differentiation score (hiPSC): 0
- 9 components subtracting: cardiac differentiation score (hiPSC): 0
- 9 components with the addition of: cardiac differentiation score (hiPSC; [1]): +++ (>75% contraction)
- 6 components subtracting: cardiac differentiation score (hiPSC): +++ (>75% contraction)

Compound: C[N+](C)(C)C[C@H](O)CC(=O)[O-] [L-carnitine]
- 21 components subtracting: cardiac differentiation score (hiPSC): 0
- 10 components subtracting: cardiac differentiation score (hiPSC): 0
- 9 components subtracting: cardiac differentiation score (hiPSC): 0
- 9 components with the addition of: cardiac differentiation score (hiPSC; [1]): 0

Compound: O=C(Nc1cccc2cccnc12)c1ccc(N2C(=O)C3C4C=CC(C4)C3C2=O)cc1 (centres unmarked) [IWR-1, 4-(1,3,3a,4,7,7a-Hexahydro-1,3-dioxo-4,7-methano-2H-isoindol-2-yl)-N-8-quinolinyl-Benzamide]
- Wnt signaling antagonist effective for cardiac differentiation (hPSC): effective

Compound: N[C@@H](Cc1cc(I)c(Oc2ccc(O)c(I)c2)c(I)c1)C(=O)O [T3 (triiodol-l-thyronine), triiodol-l-thyronine]
- 21 components subtracting: cardiac differentiation score (hiPSC): 0
- 10 components subtracting: cardiac differentiation score (hiPSC): 0
- 9 components subtracting: cardiac differentiation score (hiPSC): 0
- 9 components with the addition of: cardiac differentiation score (hiPSC; [1]): +++ (>75% contraction)
- 9 components (with 4 at 10x) subtracting: cardiac differentiation score (hiPSC): +++ (>75% contraction)

Compound: NCCO [Ethanolamine]
- 21 components subtracting: cardiac differentiation score (hiPSC): ++ (>50% contraction)

Compound: NC(=O)c1ccc(-c2nc(-c3ccc4c(c3)OCO4)c(-c3ccccn3)[nH]2)cc1 [B8431542]
- further enhancement of differentiation by pathway inhibitors (hPSC): did not further enhance the differentiation

Compound: NCCCCN [Putrescine]
- 21 components subtracting: cardiac differentiation score (hiPSC): ++ (>50% contraction)

Compound: O=C(O)CCCC[C@@H]1SC[C@@H]2NC(=O)N[C@@H]21 [Biotin (vit B7), Biotin]
- 21 components subtracting: cardiac differentiation score (hiPSC): ++ (>50% contraction)

Compound: CCCCC/C=C\C/C=C\CCCCCCCC(=O)O [Linoleic acid]
- 21 components subtracting: cardiac differentiation score (hiPSC): 0
- 10 components subtracting: cardiac differentiation score (hiPSC): 0
- 9 components subtracting: cardiac differentiation score (hiPSC): 0
- 9 components with the addition of: cardiac differentiation score (hiPSC; [1]): +
- 9 components (with 4 at 10x) subtracting: cardiac differentiation score (hiPSC): 0
- 6 components subtracting: cardiac differentiation score (hiPSC): +++ (>75% contraction)

Compound: CC(=O)OC/C=C(C)/C=C/C=C(C)/C=C/C1=C(C)CCCC1(C)C [Retinol acetate (vit A), Retinol acetate]
- 21 components subtracting: cardiac differentiation score (hiPSC): 0
- 10 components subtracting: cardiac differentiation score (hiPSC): 0
- 9 components subtracting: cardiac differentiation score (hiPSC): 0
- 9 components with the addition of: cardiac differentiation score (hiPSC; [1]): +++ (>75% contraction)
- 9 components (with 4 at 10x) subtracting: cardiac differentiation score (hiPSC): +++ (>75% contraction)

Compound: C[C@]12C[C@H](O)[C@H]3[C@@H](CCC4=CC(=O)CC[C@@]43C)[C@@H]1CC[C@@H]2C(=O)CO [Corticosterone]
- 21 components subtracting: cardiac differentiation score (hiPSC): 0
- 10 components subtracting: cardiac differentiation score (hiPSC): ++ (>50% contraction)

Compound: O=C[C@H](O)[C@@H](O)[C@@H](O)[C@H](O)CO [D(+)-galactose]
- 21 components subtracting: cardiac differentiation score (hiPSC): ++ (>50% contraction)

Compound: Catalase
- 21 components subtracting: cardiac differentiation score (hiPSC): ++ (>50% contraction)

Compound: O=C(O)CCCC[C@@H]1CCSS1 (racemic) [Lipoic acid]
- 21 components subtracting: cardiac differentiation score (hiPSC): ++ (>50% contraction)
